# Measured values taken from the OPERA property sets (Mansouri et al. 2018).
# Conditions: not given
Structure (SMILES),boiling point,log10 vapour pressure (mmHg),melting point,log10 Henry constant (atm·m³/mol),log10 Koc (L/kg),ready biodegradability,log10 biodegradation half-life (days),log10 Koa
CC1(C)COC1,80.6 °C,,,,,,,
ClC(Cl)=C(Cl)C(Cl)(Cl)Cl,210 °C,-0.613,-72.9 °C,,,,,
ClCCCCCCl,179 °C,0.0531,-72.8 °C,-3.25,,,,
CNC(=O)NC(C)=O,,,180 °C,,,,,
O=C1Cc2ccccc2O1,249 °C,,50 °C,,,,,
CCCCCOC=O,130 °C,,-73.5 °C,,,,,
CCCCCCCCCCO,231 °C,-2.07,6.9 °C,-4.49,2.59,readily biodegradable,,
CC(C)(O)CCc1ccccc1,,,24.5 °C,,,,,
CC(C)[C@@H]1CC[C@@H](C)CC1=O,207 °C,,-6 °C,,,,,
O=C(O)c1ccccc1,249 °C,-3.15,122 °C,,1.5,readily biodegradable,,
CCSCCSP(=S)(OC)OC,,-4.77,,,,,,
O=[N+]([O-])OC(CO)CO,158 °C,,54 °C,,,,,
O=Cc1ccc(O)c([N+](=O)[O-])c1,,-3.05,141 °C,,,,,
CCOC(=O)C=Cc1ccc([N+](=O)[O-])cc1,,,139 °C,,,,,
CCCCCCCCCC,174 °C,0.155,-29.7 °C,,,readily biodegradable,0.954,
CCCC(C)(Cl)Cl,,,128 °C,,,,,
CCN(CC)c1ccc(N)cc1,261 °C,,,,,,,
CCCCCCCC/C=C\CCCCCCCCCCCC(N)=O,,,77.5 °C,,,readily biodegradable,,
CC(CCl)CBr (configuration not stated),155 °C,,,,,,,
CC(C)Cc1ccc(CC(=O)O)cc1,,,86 °C,,,,,
O=[N+]([O-])c1ccc2ncccc2c1,,,154 °C,,,,,
CCN(CC)C(=O)COC(=O)c1ccccc1,,,72.5 °C,,,,,
CCOc1cccc(C=O)c1,246 °C,,,,,,,
C=C(C)c1ccccc1,165 °C,0.279,-23.2 °C,,,not readily biodegradable,,

Structure (SMILES),boiling point,log10 vapour pressure (mmHg),melting point,log10 Henry constant (atm·m³/mol),log10 Koc (L/kg),ready biodegradability,log10 biodegradation half-life (days),log10 Koa
Cc1ccc(C(=O)c2ccccc2)c(C)c1,322 °C,,,,,,,
N[C@@H](Cc1cc(I)c(O)c(I)c1)C(=O)O,,,213 °C,,,,,
Sc1ccccc1Cl,206 °C,,,,,,,
Cc1ccc(O)cc1,202 °C,-0.959,35.5 °C,-6,2.7,readily biodegradable,,
OCC(F)(F)C(F)(F)C(F)(F)F,95 °C,1.52,,,,,,
N#CC(c1ccccc1)c1ccccc1,,,74.3 °C,,,not readily biodegradable,,
COc1cc(OC)c(OC)cc1C=O,,,114 °C,,,,,
N#Cc1ccccc1Br,252 °C,,55.5 °C,,,,,
CC1=NN(c2ccccc2)C(=O)C1,,,129 °C,,,,,
O=C1C(Cl)=C(NC(=O)C(Cl)Cl)C(=O)c2ccccc21,,,212 °C,,,,,
CCCCCCCCCCCCCCCCCC(=O)Nc1ccc(O)cc1,,,134 °C,,,,,
O=C=Nc1ccccc1Cl,200 °C,,30.5 °C,,,,,
CN1C(=O)C(O)N=C(c2ccccc2Cl)c2cc(Cl)ccc21 (configuration not stated),,,206 °C,,,,,
COc1ccc2c(c1OC)C(=O)O[C@@H]2[C@H]1c2c(cc3c(c2OC)OCO3)CCN1C,,,176 °C,,,,,
C=CCCC(C)O (configuration not stated),139 °C,,,,,,,
CC(C)NC(C)C,83.9 °C,1.9,-61 °C,,,,,
O=Cc1ccccc1O[C@@H]1O[C@H](CO)[C@@H](O)[C@H](O)[C@H]1O,,,175 °C,,,,,
CCC(C)Cc1ccccc1 (configuration not stated),195 °C,,,,,,,
COc1c2c(cc3oc(=O)ccc13)OC(C)(C)C=C2,,,133 °C,,,,,
c1ccoc1,31.5 °C,2.78,-85.6 °C,,,not readily biodegradable,,
CN1CCC(CN2c3ccccc3Sc3ccccc32)C1 (configuration not stated),,,87.5 °C,,,,,
Cc1cccc(Oc2ccccc2)c1,272 °C,,,,,not readily biodegradable,,
CC1CCCC1=O (configuration not stated),140 °C,,-75 °C,,,,,
NS(=O)(=O)c1cc2c(cc1Cl)NC(CSCC(F)(F)F)NS2(=O)=O (configuration not stated),,,206 °C,,,,,

Structure (SMILES),boiling point,log10 vapour pressure (mmHg),melting point,log10 Henry constant (atm·m³/mol),log10 Koc (L/kg),ready biodegradability,log10 biodegradation half-life (days),log10 Koa
C[C@H]1CC[C@]2(NC1)O[C@H]1C[C@H]3[C@@H]4CC[C@H]5C[C@@H](O)CC[C@]5(C)[C@H]4CC[C@]3(C)[C@H]1[C@@H]2C,,,210 °C,,,,,
FC(F)(F)CBr,26 °C,,-93.9 °C,,,,,
CCC#CCC,81 °C,,-103 °C,,,,,
COc1c(O)c(Cl)c(Cl)c(Cl)c1Cl,,-4.08,,,2.85,,,
N#CCN(CC#N)CCN(CC#N)CC#N,,,128 °C,,,,,
CCCC(C)(C)CC,112 °C,1.46,-126 °C,,,,0.699,
N#CCCl,126 °C,1.18,,,,,,
ClC1=C(Cl)[C@]2(Cl)[C@H]3[C@H]([C@@H]4O[C@]4(Cl)[C@@H]3Cl)[C@@]1(Cl)C2(Cl)Cl (mixture of isomers),353 °C,,144 °C,,,,,8.39
CCC(=O)c1ccc(C)cc1,236 °C,-1.03,7.2 °C,,,,,
N#CCN(CC#N)CC#N,,-6.5,126 °C,,,,,
CCC=CCCO,156 °C,,,,,,,
CCC(=O)c1ccc2c(c1)N(CCCN(C)C)c1ccccc1S2,,,69.5 °C,,,,,
CCOP(=S)(OCC)SCS(=O)(=O)C(C)(C)C,,,,,2.18,,,
"C[C@@H]1[C@@H](c2ccc(Cl)cc2)SC(=O)N1C(=O)NC1CCCCC1 (single isomer, unassigned)",,-7.59,108 °C,,3.79,,,
COc1ccc(C(=NCc2ccccc2)c2ccc(OC)cc2)cc1,,,90 °C,,,,,
C=CCN1CC[C@]23CCCC[C@H]2[C@H]1Cc1ccc(O)cc13,,,181 °C,,,,,
O=C1C=C(Cl)C(=O)C(Cl)=C1,,,123 °C,,,,,
O=c1oc2ccccc2cc1O,,,154 °C,,,,,
CCCCCC(=O)OCCCC,208 °C,,-64.3 °C,,,,,
Cc1ccc(C(=O)c2ccccc2)cc1,,,59.5 °C,,,,,
O=C(CCl)CCl,173 °C,-0.202,45 °C,,,,,
O=C(O)CCCCCCC(=O)O,346 °C,-6.54,144 °C,,,,,
Clc1ccc(Oc2ccc(Cl)cc2Cl)cc1,,-3.82,,,,,,
CC(C)c1cccc(C(C)C)c1O,256 °C,,18 °C,,,not readily biodegradable,,

Structure (SMILES),boiling point,log10 vapour pressure (mmHg),melting point,log10 Henry constant (atm·m³/mol),log10 Koc (L/kg),ready biodegradability,log10 biodegradation half-life (days),log10 Koa
CCCCCCCCCc1ccccc1,280 °C,-2.24,-24 °C,,,,,
CCCCCCCCCC[N+](C)(C)Cc1ccccc1,,,,,,not readily biodegradable,,
Cn1c(=O)on(-c2ccc(Cl)c(Cl)c2)c1=O,,-6,123 °C,,3.48,,,
c1ccc(C(c2ccccc2)(c2ccccc2)c2ccccc2)cc1,431 °C,,282 °C,,,,,
C[Si](C)(C)CBr,116 °C,,,,,,,
CC(C)(C)C1CCCCC1O (configuration not stated),,,45 °C,,,,,
COc1ccc(-c2cc(=O)c3c(O)cc(O)cc3o2)cc1O,,,254 °C,,,,,
COC(=O)c1ccc(Cl)c([N+](=O)[O-])c1,,,83 °C,,,,,
OCc1ccccc1O,,,87 °C,,,not readily biodegradable,,
O=C(CCl)OCCOC(=O)CCl,,,45.5 °C,,,,,
C=CCC(C)CCC (configuration not stated),113 °C,,,,,,,
CC(C=CC=CC(C)=CC=CC(C)=CC=C1C(C)=CC(=O)CC1(C)C)=CC=CC(C)=CC=C1C(C)=CC(=O)CC1(C)C,,,219 °C,,,,,
Cc1ccc([N+](=O)[O-])cc1Cl,260 °C,,66.5 °C,,,not readily biodegradable,,
O=[N+]([O-])c1c(Cl)cccc1Cl,,,72.5 °C,,,,,
O=C(Nc1ccc(Cl)c(Cl)c1)Nc1cc(Cl)ccc1Oc1ccc(Cl)cc1S(=O)(=O)[O-].[Na+],,,223 °C,,,,,
CCOP(=S)(OCC)Oc1ccc2c3c(c(=O)oc2c1)CCCC3,,,88.2 °C,,,,,
CCCCCCCCCCCCCCCCOCCCCCCCCCCCCCCCC,,,55 °C,,,not readily biodegradable,,
Cc1cc(Br)ccc1N,240 °C,,59.5 °C,,,,,
C(CC1CCNCC1)CC1CCNCC1,329 °C,,67.1 °C,,,,,
C1CCCC1,49.3 °C,2.5,-93.8 °C,-0.818,,,1.7,
CCNc1nc(NC(C)CC)nc(OC)n1 (configuration not stated),,-5.14,87 °C,,2.78,,,
C=CCNC,65 °C,,,,,,,
CCC(C)CC(C)CC (configuration not stated),136 °C,,,,,,,
O=C(O)Cc1ccccc1O,240 °C,,148 °C,,,,,

Structure (SMILES),boiling point,log10 vapour pressure (mmHg),melting point,log10 Henry constant (atm·m³/mol),log10 Koc (L/kg),ready biodegradability,log10 biodegradation half-life (days),log10 Koa
CSC,37.3 °C,2.7,-98.3 °C,-2.79,,,,
OCc1ccc(CO)cc1,,,118 °C,,,,,
CCOC(=O)c1ccc(Br)cc1,263 °C,,,,,,,
CC(=O)C1CCOC1=O (configuration not stated),,,,,,readily biodegradable,,
C[Si](C)(C)N[Si](C)(C)C,125 °C,1.14,,,,,,
Clc1cc(Cl)c2cc(Cl)c(Cl)c(Cl)c2c1,,-5.68,,,,,,8.82
O=C(O)[C@@H]1CCCN1C(=O)OCc1ccccc1,,,77 °C,,,,,
C1COC1,47.6 °C,2.51,-97 °C,,,,,
CCCCOCCOCCOCCCC,256 °C,-1.58,-60 °C,,,,,
C=CC1CNC(=S)O1 (configuration not stated),,,50 °C,,,,,
CCCS(=O)CCC,,,22.5 °C,,,,,
CC(C)COC(=O)c1ccc(C(=O)OCC(C)C)cc1,,,55 °C,,,,,
c1ccc(-c2nc(-c3ccccc3)c(-c3ccccc3)[nH]2)cc1,,,275 °C,,,,,
CCCCCCCCCCCCCCCC(=O)N(CCO)CCO,,,,,,readily biodegradable,,
CCN1C[C@]2(COC)[C@H](O)C[C@H](OC)[C@]34C1[C@H]([C@H](OC)[C@H]23)[C@]1(O)[C@H]2[C@@H](O)[C@](O)(C[C@H]24)[C@@H](OC)[C@@H]1O,,,132 °C,,,,,
CC(=O)OCCN(CCOC(C)=O)c1ccc(N=Nc2nc3ccc(Cl)cc3s2)c(NC(=O)c2ccccc2)c1,,,,,,not readily biodegradable,,
Cc1ccc2nccc(C)c2c1,274 °C,,22 °C,,,,,
Oc1ccc(Nc2ccccc2)cc1,330 °C,,73 °C,,,,,
CCC(=O)CC(C)C,135 °C,,,,,,,
O=c1cc[nH]c2ccccc12,,,201 °C,,,,,

# Same assay, conditions: fish
Structure (SMILES),log10 BCF,log10 biotransformation half-life (days)
O=C(O)C1CCCCC1C(=O)O (configuration not stated),0.3,
Brc1ccc(Oc2ccc(Br)c(Br)c2)c(Br)c1,6.05,
C=C(C)c1ccccc1,1.8,-0.71
c1ccoc1,0.7,-0.84
COc1c(O)c(Cl)c(Cl)c(Cl)c1Cl,3.08,
Clc1ccc(Oc2ccc(Cl)cc2Cl)cc1,,1.72
